Experimental data taken from PubChem BioAssay (NCI).
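Dose response: 5 concentrations. Exposure: 48 h. Format: 96-well plates. Endpoint: linear interpolation; highest concentration if not reached. TGI is the concentration that stops growth completely.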

Columns and labels:
Experiment in all cases: NCI tumour cell line growth inhibition, 48 h
[1] = tested on: MCF7 breast
[2] = tested on: KM12 colon
[3] = tested on: HL-60(TB) leukemia
[4] = tested on: OVCAR-8 ovarian
[5] = tested on: LOX IMVI melanoma
[6] = tested on: UO-31 renal
[7] = tested on: SW-620 colon
[8] = tested on: SF-539 CNS
[9] = tested on: SK-MEL-5 melanoma
[10] = tested on: NCI-H226 lung

Row | SMILES | TGI [1] [µM] | TGI [2] [µM] | TGI [3] [µM] | TGI [4] [µM] | TGI [5] [µM] | TGI [6] [µM] | TGI [7] [µM] | TGI [8] [µM] | TGI [9] [µM] | TGI [10] [µM]
1 | O=C(c1ccccc1)c1c(C(F)(F)F)n([O-])c2ccccc2[n+]1=O | 5.24 | 3.89 | 1.42 | 3.3 | > 100 | 2.27 | > 100 | 5.77 |  | 
2 | Cc1nnc2cc(C(=O)O)c3ccccc3n2c1=O | > 10 |  | > 10 | > 10 | > 10 | > 10 | > 10 | > 10 | > 10 | > 10
3 | Cn1c(=O)c2c(-c3ccccc3)onc2n(C)c1=O | > 100 | > 100 |  | > 100 | 70.1 | > 100 | > 100 | > 100 | > 100 | > 100
4 | COc1cc(C2C3=C(CCC3=O)Oc3cc4c(cc32)OCO4)cc(OC)c1OC (stereo unspecified) |  |  | 0.596 | > 100 | > 100 | > 100 | > 100 |  | 15.2 | 
5 | CN(C)CCOC(=O)COc1ccc(Cl)cc1 | > 100 | > 100 |  | > 100 | > 100 | > 100 | > 100 | > 100 | > 100 | > 100
6 | CC(CCC(=O)O)[C@H]1CCC2[C@H]3C(CC[C@@]21C)[C@@]1(C)CCC(O)C[C@H]1C[C@@H]3O (stereo partly specified) | > 100 | > 100 | > 100 | > 100 | > 100 | > 100 | > 100 | > 100 |  | > 100
7 | N#CCCC1C(C#N)C2CC1C1C3C=CC(C3)C21 (stereo unspecified) | > 100 | > 100 | > 100 | > 100 | > 100 | > 100 | > 100 |  | > 100 | > 100
8 | O=c1[nH]c(=O)n(C2OC(COP(=O)(O)OP(=O)(O)O)C(O)C2O)cc1F (stereo unspecified) |  | > 50 | > 50 | > 50 | 23 | 20.4 | > 50 | 17.2 | > 50 | 28.6
9 | CCOC(=O)c1cc2c(OC(C)=O)ccc(OC(C)=O)c2s1 | 11.8 | 17.6 | 2.97 | 3.51 | 3.09 | 2.76 |  | 3.36 | 6.69 | 55
10 | CN1CCn2c(Br)ccc2C1=O |  | > 100 | > 100 | > 100 | > 100 | > 100 | > 100 | > 100 |  | > 100
11 | O=C(Nn1c(-c2ccccc2)nc2ccccc2c1=O)c1ccccn1 |  | > 100 | > 100 | > 100 | > 100 | > 100 | > 100 | > 100 | > 100 | 
12 | Cc1cc(Cc2c(F)c(F)c(Cc3cc(C)no3)c(F)c2F)on1 | > 100 |  | > 100 | > 100 | > 100 | > 100 |  | > 100 | > 100 | > 100
